{"source": "patent US20090093454A1", "about": "“Chemical Compounds” (priority 2005, published 2009)"}
{"tested_on": "HIV-1", "experiment": "HIV infectivity assay (Table 2, strain not given)", "format": "cell-based", "conditions": "Human immunodeficiency virus 1, read-out: Activity Level", "protocol": "(§1) Compounds were profiled against two HIV-1 viruses, the M-tropic (CCR5 utilizing) Ba-L strain and the T-tropic (CXCR4 utilizing) IIIB strain. Both viruses were propagated in human peripheral blood lymphocytes. Compounds were tested for there ability to block infection of the HOS cell line (expressing hCXCR4/hCCR5/hCD4/pHIV-LTR-luciferase) by either HIV-1 Ba-L or HIV-1, IIIB. Compound cytotoxicity was also examined in the absence of virus addition.\n(§2) HOS cells (expressing hCXCR4/hCCR5/hCD4/pHIV-LTR-luciferase) were harvested and diluted in Dulbeccos modified Eagles media supplemented with 2% FCS and non-essential amino acid to a concentration of 60,000 cells/ml. The cells were plated into 96-well plates (100 ul per well) and the plates were placed in a tissue culture incubator (37° C.; 5% CO2/95% air) for a period of 24 h.\nSubsequently, 50 ul of the desired drug solution (4 times the final concentration) was added to each well and the plates were returned to the tissue culture incubator (37° C.; 5% CO2/95% air) for 1 h. Following this incubation 50 ul of diluted virus was added to each well (approximately 2 million RLU per well of virus). The plates were returned to the tissue culture incubator (37° C.; 5% CO2/95% air) and were incubated for a further 96 h.\nFollowing this incubation the endpoint for the virally infected cultures was quantified following addition of Steady-Glo Luciferase assay system reagent (Promega, Madison, Wis.). Cell viability or non-infected cultures was measured using a CellTiter-Glo luminescent cell viability assay system (Promega, Madison, Wis.). All luminescent readouts are performed on a Topcount luminescence detector (Packard, Meridien, Conn.).\nas §1, with “Ba-L was” for “Both viruses were”, “either peripheral blood lymphocytes or SupT1/CCR5+/CXCR4+ cells. IIIB was propagated in” for “human”, “their” for “there”\nas §2, with “FCS” for “FCS and non-essential amino acid”, “120,000” for “60,000”, “(50 μl” for “(100 ul”, “(370°” for “(37°”\nSubsequently, 50 μl of the desired drug solution (2 times the final concentration) was added to each well and the plates were returned to the tissue culture incubator (370° C.; 5% CO2/95% air) for 1 h. Following this incubation, 60 μl of diluted virus (4 times the final concentration) was added to 60 μl of 2× the final desired concentration of the compound and 100 μl of this compound/virus mix was added to each well (approximately 2 million RLU per well of virus). The plates were returned to the tissue culture incubator (370° C.; 5% CO2/95% air) and were incubated for a further 96 h.", "units": {"IC50": "nM"}}
{"smiles": "CN(C)CC1CCN(c2cccc3nc(CN4CCC[C@H]5CCc6cccnc6[C@H]54)cn23)CC1", "note": "[Example 86, [(1-{2-[(4aR,10bS)-3,4,4a,5,6,10b-hexahydro-1,10-phenanthrolin-1(2H)-ylmethyl]imidazo[1,2-a]pyridin-5-yl}-4-piperidinyl)methyl]dimethylamine]", "IC50": "< 100"}
{"smiles": "CN1CCN(c2cccc3nc(CN4CCC[C@H]5CCc6cccnc6[C@H]54)c(CN4CCOCC4)n23)CC1", "note": "[Example 59, (4aR,10bS)-1-{[5-(4-methyl-1-piperazinyl)-3-(4-morpholinylmethyl)imidazo[1,2-a]pyridin-2-yl]methyl}-1,2,3,4,4a,5,6,10b-octahydro-1,10-phenanthroline]", "IC50": "< 100"}
{"smiles": "CN1CCN(c2cccc3nc(CN4CCC[C@H]5CCCc6cccnc6[C@H]54)cn23)CC1", "note": "[Example 124, (4aR,11bS)-1-{[5-(4-methyl-1-piperazinyl)imidazo[1,2-a]pyridin-2-yl]methyl}-2,3,4,4a,5,6,7,11b-octahydro-1H-pyrido[3′,2′:6,7]cyclohepta[1,2-b]pyridine]", "IC50": "< 100"}
{"smiles": "CN(C)C1CN(c2cccc3nc(CN4CCC[C@H]5CCc6cccnc6[C@H]54)cn23)C1", "note": "[Example 98, 1-{2-[(4aR,10bS)-3,4,4a,5,6,10b-hexahydro-1,10-phenanthrolin-1(2H)-ylmethyl]imidazo[1,2-a]pyridin-5-yl}-N,N-dimethyl-3-azetidinamine]", "IC50": "100 to 500"}
{"smiles": "c1cnc2c(c1)CC[C@@H]1CCCN(Cc3nc4ccccc4n3CCCN3CCOCC3)[C@H]21", "note": "(racemic) [Example 44, (cis) 1-({1-[3-(4-morpholinyl)propyl]-1H-benzimidazol-2-yl}methyl)-1,2,3,4,4a,5,6,10b-octahydro-1,10-phenanthroline]", "IC50": "100 to 500"}
{"smiles": "NCCCCn1c(CN2CC[C@@H]3CCc4cccnc4[C@H]32)nc2ccccc21", "note": "(racemic) [Example 130, (trans) 4-[2-(2,3,3a,4,5,9b-hexahydro-1H-pyrrolo[3,2-h]quinolin-1-ylmethyl)-1H-benzimidazol-1-yl]-1-butanamine]", "IC50": "100 to 500"}
{"smiles": "OC1CCN(c2cccc3nc(CN4CCC[C@H]5CCc6cccnc6[C@H]54)cn23)CC1", "note": "[Example 69, 1-{2-[(4aR,10bS)-3,4,4a,5,6,10b-hexahydro-1,10-phenanthrolin-1(2H)-ylmethyl]imidazo[1,2-a]pyridin-5-yl}-4-piperidinol]", "IC50": "100 to 500"}
{"smiles": "CN1CCC(Nc2cccc3nc(CN4CCC[C@H]5CCc6cccnc6[C@H]54)cn23)CC1", "note": "[Example 68, 2-[(4aR,10bS)-3,4,4a,5,6,10b-hexahydro-1,10-phenanthrolin-1(2H)-ylmethyl]-N-(1-methyl-4-piperidinyl)imidazo[1,2-a]pyridin-5-amine]", "IC50": "< 100"}
{"smiles": "CN1CCCN(c2cccc3nc(CN4CCC[C@@H]5CCCc6cccnc6[C@H]54)cn23)CC1", "note": "(relative stereo) [Example 125, (trans) 1-{[5-(4-methylhexahydro-1H-1,4-diazepin-1-yl)imidazo[1,2-a]pyridin-2-yl]methyl}-2,3,4,4a,5,6,7,11b-octahydro-1H-pyrido[3′,2′:6,7]cyclohepta[1,2-b]pyridine]", "IC50": "100 to 500"}
{"smiles": "CC(C)N1CCC[C@H](Cn2c(CN3CCC[C@H]4CCc5cccnc5[C@H]43)nc3ccccc32)C1", "note": "[Example 65, (4aR,10bS)-1-[(1-{[(3S)-1-(1-methylethyl)-3-piperidinyl]methyl}-1H-benzimidazol-2-yl)methyl]-1,2,3,4,4a,5,6,10b-octahydro-1,10-phenanthroline]", "IC50": "< 100"}
{"smiles": "CN(C)CCCn1cnc(CN2CCC[C@H]3CCc4cccnc4[C@H]32)c1", "note": "[Example 51a, (3-{4-[(4aR,10bS)-3,4,4a,5,6,10b-hexahydro-1,10-phenanthrolin-1(2H)-ylmethyl]-1H-imidazol-1-yl}propyl)dimethylamine]", "IC50": "500 to 10000"}
{"smiles": "CN(C)CCCn1c(CN2CCC[C@H]3CCc4cccnc4[C@H]32)nc2ccccc21", "note": "(racemic) [Example 41, (cis) 3-[2-(3,4,4a,5,6,10b-hexahydro-1,10-phenanthrolin-1(2H)-ylmethyl)-1H-benzimidazol-1-yl]-N,N-dimethyl-1-propanamine]", "IC50": "< 100"}
{"smiles": "CN1CCN(c2cccc3nc(CN4CCC[C@@H]5CCCc6cccnc6[C@H]54)cn23)CC1", "note": "[Example 123, (4aS,11bS)-1-{[5-(4-methyl-1-piperazinyl)imidazo[1,2-a]pyridin-2-yl]methyl}-2,3,4,4a,5,6,7,11b-octahydro-1H-pyrido[3′,2′:6,7]cyclohepta[1,2-b]pyridine]", "IC50": "< 100"}
{"smiles": "CN1CCCC(Cn2c(CN3CCC[C@@H]4CCc5cccnc5[C@H]43)nc3ccccc32)C1", "note": "(relative stereo) [Example 42, (trans) 1-({1-[(1-methyl-3-piperidinyl)methyl]-1H-benzimidazol-2-yl}methyl)-1,2,3,4,4a,5,6,10b-octahydro-1,10-phenanthroline]", "IC50": "100 to 500"}
{"smiles": "C[C@H]1CCCN1c1cccc2nc(CN3CCC[C@H]4CCc5cccnc5[C@H]43)cn12", "note": "[Example 111, (4aR,10bS)-1-({5-[(2S)-2-methyl-1-pyrrolidinyl]imidazo[1,2-a]pyridin-2-yl}methyl)-1,2,3,4,4a,5,6,10b-octahydro-1,10-phenanthroline]", "IC50": "100 to 500"}
{"smiles": "CN1CCN(c2cccc3nc(CN4CCC[C@H]5CCc6cccnc6[C@H]54)n(C)c23)CC1", "note": "[Example 134, (4aR,10bS)-1-{[1-methyl-7-(4-methyl-1-piperazinyl)-1H-benzimidazol-2-yl]methyl}-1,2,3,4,4a,5,6,10b-octahydro-1,10-phenanthroline]", "IC50": "< 100"}
{"smiles": "c1cnc2c(c1)CC[C@@H]1CCCN(Cc3cn4c(N5CCCNCC5)cccc4n3)[C@H]21", "note": "[Example 87, (4aR,10bS)-1-{[5-(hexahydro-1H-1,4-diazepin-1-yl)imidazo[1,2-a]pyridin-2-yl]methyl}-1,2,3,4,4a,5,6,10b-octahydro-1,10-phenanthroline]", "IC50": "< 100"}
{"smiles": "O=C(CN1CCN(c2cccc3nc(CN4CCC[C@H]5CCc6cccnc6[C@H]54)cn23)CC1)N1CCCC1", "note": "[Example 101, (4aR,10bS)-1-[(5-{4-[2-oxo-2-(1-pyrrolidinyl)ethyl]-1-piperazinyl}imidazo[1,2-a]pyridin-2-yl)methyl]-1,2,3,4,4a,5,6,10b-octahydro-1,10-phenanthroline]", "IC50": "< 100"}
{"smiles": "c1cnc2c(c1)CC[C@@H]1CCCN(Cc3cn4c(NC5CCNC5)cccc4n3)[C@H]21", "note": "(stereo partly drawn) [Example 109, 2-[(4aR,10bS)-3,4,4a,5,6,10b-hexahydro-1,10-phenanthrolin-1(2H)-ylmethyl]-N-3-pyrrolidinylimidazo[1,2-a]pyridin-5-amine]", "IC50": "100 to 500"}
{"smiles": "c1cnc2c(c1)CC[C@@H]1CCCN(Cc3c[nH]cn3)[C@H]21", "note": "[Example 50, (4aR,10bS)-1-(1H-imidazol-4-ylmethyl)-1,2,3,4,4a,5,6,10b-octahydro-1,10-phenanthroline]", "IC50": "500 to 10000"}
{"smiles": "CN(C)CCCn1c(CN2CCC[C@@H]3CCc4cccnc4[C@H]32)nc2ccccc21", "note": "(relative stereo) [Example 40, (trans) 3-[2-(3,4,4a,5,6,10b-hexahydro-1,10-phenanthrolin-1(2H)-ylmethyl)-1H-benzimidazol-1-yl]-N,N-dimethyl-1-propanamine]", "IC50": "100 to 500"}
{"smiles": "CN(C)C1CCN(c2cccc3nc(CN4CCC[C@H]5CCc6cccnc6[C@H]54)cn23)CC1", "note": "[Example 67, 1-{2-[(4aR,10bS)-3,4,4a,5,6,10b-hexahydro-1,10-phenanthrolin-1(2H)-ylmethyl]imidazo[1,2-a]pyridin-5-yl}-N,N-dimethyl-4-piperidinamine]", "IC50": "< 100"}
{"smiles": "CN1CCC(N(C)c2cccc3nc(CN4CCC[C@H]5CCc6cccnc6[C@H]54)cn23)CC1", "note": "[Example 74, 2-[(4aR,10bS)-3,4,4a,5,6,10b-hexahydro-1,10-phenanthrolin-1(2H)-ylmethyl]-N-methyl-N-(1-methyl-4-piperidinyl)imidazo[1,2-a]pyridin-5-amine]", "IC50": "< 100"}
